Measurements reported in PubChem BioAssay AID1963856 (Molecular Pharmacology Branch, DTP, NCI, 2024).

Test system: LG0567-F671-PDC KRAS tumor spheroid viability
Assay: Anticancer human tumor LG0567-F671-PDC patient-derived lung adenocarcinoma cell line growth inhibition [KRAS2]
Details: spheroids with HUVEC and MSC; for IC50: curve of first compound; for viability, T/C: stronger effect = lower value
Outline: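 KRAS-mutant tumor cells were grown as spheroids with HUVEC endothelial cells and human MSCs as stroma. Targeted agents were tested alone and with KRAS pathway inhibitors. Doses started at or near clinical Cmax, or 10 microM, descending half-log.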

[1] = second compound 0.1 µM, first compound 0.0316 µM
[2] = second compound 0.1 µM, first compound 0.1 µM
[3] = second compound 0.316 µM, first compound 0.0316 µM
[4] = second compound 0.316 µM, first compound 0.1 µM
[5] = second compound 1 µM, first compound 0.0316 µM
[6] = second compound 1 µM, first compound 0.1 µM
[7] = second compound 3.16 µM, first compound 0.0316 µM
[8] = second compound 3.16 µM, first compound 0.1 µM
[9] = second compound 10 µM, first compound 0.0316 µM
[10] = second compound 10 µM, first compound 0.1 µM
[11] = second compound 0.1 µM, first compound 0.316 µM
[12] = second compound 0.1 µM, first compound 1 µM
[13] = second compound 0.1 µM, first compound 3.16 µM
[14] = second compound 0.1 µM, first compound 10 µM
[15] = second compound 0.316 µM, first compound 0.316 µM
[16] = second compound 0.316 µM, first compound 1 µM
[17] = second compound 0.316 µM, first compound 3.16 µM
[18] = second compound 0.316 µM, first compound 10 µM
[19] = second compound 1 µM, first compound 0.316 µM
[20] = second compound 1 µM, first compound 1 µM
[21] = second compound 1 µM, first compound 3.16 µM
[22] = second compound 1 µM, first compound 10 µM
[23] = second compound 3.16 µM, first compound 0.316 µM
[24] = second compound 3.16 µM, first compound 1 µM
[25] = second compound 3.16 µM, first compound 3.16 µM
[26] = second compound 3.16 µM, first compound 10 µM
[27] = second compound 10 µM, first compound 0.316 µM
[28] = second compound 10 µM, first compound 1 µM
[29] = second compound 10 µM, first compound 3.16 µM
[30] = second compound 10 µM, first compound 10 µM
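Note: drug exposure lasted seven days after spheroids formed for three days.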
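Throughout, for viability, T/C: 100% = DMSO vehicle control viability.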

Row | SMILES | IC50 (second compound 0.1 µM) [nM] | IC50 (second compound 0.316 µM) [nM] | IC50 (second compound 1 µM) [nM] | IC50 (second compound 3.16 µM) [nM] | IC50 (second compound 10 µM) [nM] | viability, T/C [1] [%] | viability, T/C [2] [%] | viability, T/C [3] [%] | viability, T/C [4] [%] | viability, T/C [5] [%] | viability, T/C [6] [%] | viability, T/C [7] [%] | viability, T/C [8] [%] | viability, T/C [9] [%] | viability, T/C [10] [%] | viability, T/C [11] [%] | viability, T/C [12] [%] | viability, T/C [13] [%] | viability, T/C [14] [%] | viability, T/C [15] [%] | also measured
1 | CN(C)C/C=C/C(=O)Nc1cc2c(Nc3ccc(F)c(Cl)c3)ncnc2cc1O[C@H]1CCOC1 + CNCc1ccccc1-c1csc(C(C)Nc2nc(C)nc3cc(OC)c(OC)cc23)c1 | 24.8 | 17.1 | 6.76 | 0.404 | < 0.316 | 46.9 | 51.3 | 43.5 | 53.1 | 44.2 | 37.4 | 0.63 | 0.28 | 1.14 | 0.66 |  |  |  |  |  | viability, T/C (second compound 0.1 µM, first compound 0.000316 µM): 88%; viability, T/C (second compound 0.1 µM, first compound 0.001 µM): 71.5%; viability, T/C (second compound 0.1 µM, first compound 0.00316 µM): 65.5%; viability, T/C (second compound 0.1 µM, first compound 0.01 µM): 49%; viability, T/C (second compound 0.316 µM, first compound 0.000316 µM): 77.9%; viability, T/C (second compound 0.316 µM, first compound 0.001 µM): 72.8%; viability, T/C (second compound 0.316 µM, first compound 0.00316 µM): 59.7%; viability, T/C (second compound 0.316 µM, first compound 0.01 µM): 52%; viability, T/C (second compound 1 µM, first compound 0.000316 µM): 54.7%; viability, T/C (second compound 1 µM, first compound 0.001 µM): 61.3%; viability, T/C (second compound 1 µM, first compound 0.00316 µM): 49.4%; viability, T/C (second compound 1 µM, first compound 0.01 µM): 48.2%; viability, T/C (second compound 3.16 µM, first compound 0.000316 µM): 54.9%; viability, T/C (second compound 3.16 µM, first compound 0.001 µM): 31.7%; viability, T/C (second compound 3.16 µM, first compound 0.00316 µM): 0.31%; viability, T/C (second compound 3.16 µM, first compound 0.01 µM): 0.13%; viability, T/C (second compound 10 µM, first compound 0.000316 µM): 0.28%; viability, T/C (second compound 10 µM, first compound 0.001 µM): 0.22%; viability, T/C (second compound 10 µM, first compound 0.00316 µM): 0.1%; viability, T/C (second compound 10 µM, first compound 0.01 µM): 0.38%
2 | CCNC(=O)CC1N=C(c2ccc(Cl)cc2)c2cc(OC)ccc2-n2c(C)nnc21 (stereo not drawn) + CNCc1ccccc1-c1csc(C(C)Nc2nc(C)nc3cc(OC)c(OC)cc23)c1 | 1010 | 602 | 362 | 127 | < 31.6 | 96.7 | 92.1 | 85.4 | 87.6 | 70.2 | 67.6 | 72.3 | 62.5 | 0.18 | 0.15 | 66.1 | 49.9 | 42.1 | 30 | 64.1 | viability, T/C [16]: 39.2%; viability, T/C [17]: 32.7%; viability, T/C [18]: 30.6%; viability, T/C [19]: 49%; viability, T/C [20]: 39%; viability, T/C [21]: 29.7%; viability, T/C [22]: 25.5%; viability, T/C [23]: 1.46%; viability, T/C [24]: 0.1%; viability, T/C [25]: 2.03%; viability, T/C [26]: 1.27%; viability, T/C [27]: 0.22%; viability, T/C [28]: 0.09%; viability, T/C [29]: 0.09%; viability, T/C [30]: 0.15%
3 | COc1cc(Nc2ncc3c(n2)-c2ccc(Cl)cc2C(c2c(F)cccc2OC)=NC3)ccc1C(=O)O + C=CC(=O)N1CCN(c2nc(OCC3CCCN3C)nc3c2CCN(c2cccc4cccc(C)c24)C3)CC1CC#N | < 31.6 | < 31.6 | < 31.6 | < 31.6 |  | 25.7 | 22.9 | 29.2 | 22.6 | 27.8 | 26.4 | 28.7 | 30.4 |  |  | 17.6 | 19.2 | 21.8 | 15 | 20.3 | IC50 (second compound 0.0316 µM): < 31.6 nM; viability, T/C (second compound 0.0316 µM, first compound 0.0316 µM): 32.8%; viability, T/C (second compound 0.0316 µM, first compound 0.1 µM): 20.1%; viability, T/C (second compound 0.0316 µM, first compound 0.316 µM): 20.5%; viability, T/C (second compound 0.0316 µM, first compound 1 µM): 20.2%; viability, T/C (second compound 0.0316 µM, first compound 3.16 µM): 18.7%; viability, T/C (second compound 0.0316 µM, first compound 10 µM): 16.3%; viability, T/C [16]: 19.7%; viability, T/C [17]: 23.3%; viability, T/C [18]: 16.9%; viability, T/C [19]: 24.6%; viability, T/C [20]: 25.4%; viability, T/C [21]: 26.7%; viability, T/C [22]: 22.9%; viability, T/C [23]: 30.3%; viability, T/C [24]: 23.7%; viability, T/C [25]: 17%; viability, T/C [26]: 1.09%
4 | CCNC(=O)CC1N=C(c2ccc(Cl)cc2)c2cc(OC)ccc2-n2c(C)nnc21 (stereo not drawn) |  |  |  |  |  |  |  |  |  |  |  |  |  |  |  |  |  |  |  |  | viability, T/C (compound 0.0316 µM): 115% [middle of 5 runs]; viability, T/C (compound 0.1 µM): 103% [middle of 5 runs]; viability, T/C (compound 0.316 µM): 80.5% [middle of 5 runs]
5 | CCNC(=O)CC1N=C(c2ccc(Cl)cc2)c2cc(OC)ccc2-n2c(C)nnc21 (stereo not drawn) + C=CC(=O)N1CCN(c2nc(=O)n(-c3c(C)ccnc3C(C)C)c3nc(-c4c(O)cccc4F)c(F)cc23)C(C)C1 | < 31.6 | < 31.6 | < 31.6 | < 31.6 | < 31.6 | 35 | 33 | 28.9 | 34.7 | 32.7 | 31.1 | 25.9 | 30.1 | 24.3 | 26.2 | 24.3 | 18.5 | 15.2 | 12.9 | 25.1 | viability, T/C [16]: 18.7%; viability, T/C [17]: 15.3%; viability, T/C [18]: 13.2%; viability, T/C [19]: 22%; viability, T/C [20]: 16%; viability, T/C [21]: 15.8%; viability, T/C [22]: 12.4%; viability, T/C [23]: 20.9%; viability, T/C [24]: 16.3%; viability, T/C [25]: 12.8%; viability, T/C [26]: 10.2%; viability, T/C [27]: 17%; viability, T/C [28]: 10.3%; viability, T/C [29]: 9.13%; viability, T/C [30]: 9.1%
